# Reference: patent US20220110902A1, “Methods of treating amyloid-beta peptide diseases” (Ecole Polytechnique Federale de Lausanne, priority 2016, published 2022)
# Tests used:
# Type in all cases: in vivo, mouse
# old mice = assay: Myriocin treatment of aged mice: muscle function and amyloid deposits; settings: 0.4 mg/kg intra peritoneal injection for 8 weeks
# From the text: FIG. 14A is a graph showing that inhibition of ceramide synthesis resolves Aβ proteotoxic stress in human cells. […] (FIG. 14C) Myriocin, administered as described in FIG. 14B, improves grip strength, exercise capacity (distance run), balance (latency square in beamwalk), and movement coordination (rotarod latency) in old mice. (FIG. 14D) Myriocin treatment reduces amyloid deposits, as shown by immunodetection with Thioflavin S (ThS), in the muscle tissues of old mice.
# old C57BL/6J mice = assay: NR treatment of aged C57BL/6J mice: muscle amyloid, Oxphos proteins, MSR
# Procedure: Young (1 month old) and aged (20-24 months old) C57BL/6JRj mice were purchased from Janvier Labs. APP/PSEN1 mice (Tg(APPswe,PSEN1dE9)85Dbo/Mmjax) were purchased from JAX. C57BL/6JR mice were fed with pellets containing vehicle or NR (400 mg/kg/day) for 6-8 weeks, while APP/PSEN1 mice were fed NR pellets for 10 weeks, starting at the age of 4 months. The pellets were prepared by mixing powdered chow diet (20165, Harlan Laboratories) with water or with NR dissolved in water. Pellets were dried under a laminar flow hood for 48 hours. Mice were housed by groups of 2 to 5 animals per cage and randomized to 7-8 animals per experimental group according to their body weight. No blinding was used during the experiment procedures. Mouse: Total RNA was extracted from tissues using TriPure RNA isolation reagent (Roche) according to the product manual. Expression of selected genes was analyzed using the LightCycler480 system (Roche) and LightCycler® 480 SYBR Green I Master reagent (Roche). The beta-2-Microglobulin B2m gene was used as housekeeping reference. Mouse: Frozen cortex tissue samples were lysed by mechanical homogenization with RIPA buffer containing protease and phosphatase inhibitors, and analyzed by SDS-PAGE and western blot. Subsequently, the concentration of extracted protein was determined by using the Bio-Rad Protein Assay. Proteins were detected using the following antibodies: HSP60 (Enzo Life Science), CLPP (Sigma), anti-GAPDH (14C10) (Cell Signaling), LONP1 (Sigma), PINK1 (Novus Biologicals), LC3 A/B (Cell Signaling), SDHB (Oxphos cocktail, Abcam), MTCO1 (Abcam), Ubiquitin (Enzo), P62 (BD Transduction Laboratories), Phopsho P62 (Cell Signaling), VDAC (Abcam), β-Amyloid, 17-24 (4G8) (BioLegend). In addition to the housekeeping proteins, loading was monitored by Ponceau Red to ensure a homogeneous loading. Antibody detection reactions for all the immunoblot experiments were developed by enhanced chemiluminescence (Advansta) and imaged using the c300 imaging system (Azure Biosystems). Pixel intensity was quantified by using ImageJ software. […]
# APP/PSEN1 AD mice = assay: NR treatment of APP/PSEN1 AD mice: cortex plaques, MSR, Oxphos proteins; settings: NR 400 mg/kg/day for 10 weeks
# Procedure: Young (1 month old) and aged (20-24 months old) C57BL/6JRj mice were purchased from Janvier Labs. APP/PSEN1 mice (Tg(APPswe,PSEN1dE9)85Dbo/Mmjax) were purchased from JAX. C57BL/6JR mice were fed with pellets containing vehicle or NR (400 mg/kg/day) for 6-8 weeks, while APP/PSEN1 mice were fed NR pellets for 10 weeks, starting at the age of 4 months. The pellets were prepared by mixing powdered chow diet (20165, Harlan Laboratories) with water or with NR dissolved in water. Pellets were dried under a laminar flow hood for 48 hours. Mice were housed by groups of 2 to 5 animals per cage and randomized to 7-8 animals per experimental group according to their body weight. No blinding was used during the experiment procedures. Mouse: Total RNA was extracted from tissues using TriPure RNA isolation reagent (Roche) according to the product manual. Expression of selected genes was analyzed using the LightCycler480 system (Roche) and LightCycler® 480 SYBR Green I Master reagent (Roche). The beta-2-Microglobulin B2m gene was used as housekeeping reference. Mouse: Frozen cortex tissue samples were lysed by mechanical homogenization with RIPA buffer containing protease and phosphatase inhibitors, and analyzed by SDS-PAGE and western blot. Subsequently, the concentration of extracted protein was determined by using the Bio-Rad Protein Assay. Proteins were detected using the following antibodies: HSP60 (Enzo Life Science), CLPP (Sigma), anti-GAPDH (14C10) (Cell Signaling), LONP1 (Sigma), PINK1 (Novus Biologicals), LC3 A/B (Cell Signaling), SDHB (Oxphos cocktail, Abcam), MTCO1 (Abcam), Ubiquitin (Enzo), P62 (BD Transduction Laboratories), Phopsho P62 (Cell Signaling), VDAC (Abcam), β-Amyloid, 17-24 (4G8) (BioLegend). In addition to the housekeeping proteins, loading was monitored by Ponceau Red to ensure a homogeneous loading. […] Pixel intensity was quantified by using ImageJ software. […] Quantitative analysis of the immunofluorescence data was carried out by histogram analysis of the fluorescence intensity at each pixel across the images using Image J (Fiji; National Institutes of Health). […]
structure (smiles),measurement,setting,value
"CCCCCCC(=O)CCCCCC/C=C/C[C@@H](O)[C@H](O)[C@@](N)(CO)C(=O)O [Myriocin, (E,2S,3R,4R)-2-amino-3,4-dihydroxy-2-(hydroxymethyl)-14-oxoicos-6-enoic acid]",balance (latency square in beamwalk),old mice; mice 18 months or older,improves
same,exercise capacity (distance run),old mice; mice 18 months or older,improves
same,grip strength,old mice; mice 18 months or older,improves
same,movement coordination (rotarod latency),old mice; mice 18 months or older,improves
same,"amyloid deposits in muscle tissues, Thioflavin S (ThS)",old mice; old mice,reduces
"NC(=O)c1ccc[n+]([C@@H]2O[C@H](CO)[C@@H](O)[C@H]2O)c1 [NR, Nicotinamide Riboside triflate]",SDHB and MTCO1 protein levels in muscle,"old C57BL/6J mice; aged mice, NR 400 mg/kg/day for 6-8 weeks",partially restoring
same,A11- and 4G8 positive amyloid-like deposits in TA and forelimbs muscle,"old C57BL/6J mice; old mice, NR 400 mg/kg/day in pellets for 6-8 weeks",marked reduction
same,expression of MSR signature genes in muscle,"old C57BL/6J mice; quadriceps, NR 400 mg/kg/day for 6-8 weeks",increasing
same,MSR signature in cortex,APP/PSEN1 AD mice,induced
same,Oxphos protein levels in cortex,APP/PSEN1 AD mice,induced
same,"Aβ deposits (plaques) in cortex, Thioflavin S",APP/PSEN1 AD mice; starting at 4 months of age,robustly reduced
